# Experimental data as given in patent US20250127796A1, “METHODS OF TREATING CANCER WITH PI3K INHIBITOR, GDC-0077” (Genentech, Inc., priority 2018, published 2025).
# Like-named read-outs stand apart in the source and are kept apart here.
# Tests used:
# [1] = in combination with letrozole; cited from earlier work
# [2] = in combination with fulvestrant; cited from earlier work
# [3] = tested on: Class I PI3K beta, delta, and gamma isoforms; settings: selectivity of alpha over beta; cited from earlier work
# [4] = tested on: human breast xenograft models harboring PIK3CA mutations; test: tumor growth in human breast xenograft models harboring PIK3CA mutations; type: in vivo; settings: nonclinical studies
# [5] = tested on: tumor cells bearing mutant PI3K; settings: mutant versus WT PI3K cells; cited from earlier work
# pAKT, pPRAS40, and pS6 = test: downstream PI3K-pathway markers; type: cell-based; settings: nonclinical studies
# [6] = tested on: PIK3CA-mutant breast cancer cell lines; test: proliferation and apoptosis of PIK3CA-mutant breast cancer cell lines; type: cell-based; settings: nonclinical studies
SMILES,patients who required ≥1 dose reduction of palbociclib [1],patients who required ≥1 dose reduction of palbociclib [2],"less potent biochemical inhibition for other Class I PI3K beta, delta, and gamma isoforms (versus PI3K alpha) [3]",tumor growth in human breast xenograft models harboring PIK3CA mutations [4],potency in mutant PI3K tumor cells over wild type (WT) PI3K cells [5],"downstream PI3K-pathway markers, including pAKT, pPRAS40, and pS6 (pAKT, pPRAS40, and pS6)",proliferation and apoptosis of PIK3CA-mutant breast cancer cell lines [6]
"CC(=O)c1c(C)c2cnc(Nc3ccc(N4CCNCC4)cn3)nc2n(C2CCCC2)c1=O [palbociclib, 6-acetyl-8-cyclopentyl-5-methyl-2-(5-(piperazin-1-yl)pyridin-2-ylamino)pyrido[2,3-d]pyrimidin-7(8H)-one]",36%,34%,–,–,–,–,–
"C[C@H](Nc1ccc2c(c1)OCCn1cc(N3C(=O)OC[C@H]3C(F)F)nc1-2)C(N)=O [GDC-0077, (S)-2-((2-((S)-4-(difluoromethyl)-2-oxooxazolidin-3-yl)-5,6-dihydrobenzo[f]imidazo[1,2-d][1,4]oxazepin-9-yl)amino)propanamide]",–,–,> 300 fold,inhibits tumor growth,increased potency in tumor cells bearing mutant PI3K over wild type (WT) PI3K cells,reduces downstream PI3K-pathway markers,inhibits proliferation and induces apoptosis
